# Values of other authors as cited in patent US20260345619A1 (Principia Biopharma Inc., priority 2023, published 2026).
# pIC50: −log10 of the molar value.
# Assays:
# [1] = target: tyrosine protein kinase TEC; settings: cited from earlier work
# [2] = system: other TEC family members; settings: preclinical assays; cited from earlier work
smiles,measurement,setting,value
"CC(C)(C=C(C#N)C(=O)N1CCC[C@@H](n2nc(-c3ccc(Oc4ccccc4)cc3F)c3c(N)ncnc32)C1)N1CCN(C2COC2)CC1 (mixture of isomers) [rilzabrutinib, (R)-2-[3-[4-amino-3-(2-fluoro-4-phenoxy-phenyl)pyrazolo[3,4-d]pyrimidin-1-yl]piperidine-1-carbonyl]-4-methyl-4-[4-(oxetan-3-yl)piperazin-1-yl]pent-2-enenitrile]",pIC50,[1],9.10
same,binding to other TEC family members over time,[2],decayed rapidly over time
